Earlier results in US4065616A, “Processes for production of a 1-N-(α-hydroxy-.PHI.-amino alkanoyl)-3-deoxy-5-O-pentafuranosyl neamine and new compounds produced by the same processes” (Zaidan Hojin Biseibutsu Kagaku Kenkyu Kai, priority 1975, dated 1977).

System: kanamycin-resistant bacteria
Details: in words, prior work; cited from earlier work

Row | SMILES | antibacterial activity against resistant bacteria
1 | NC[C@H]1O[C@H](O[C@H]2[C@H](O[C@@H]3O[C@H](CO)[C@@H](O)[C@H]3O)[C@@H](O)[C@H](N)C[C@@H]2N)[C@H](N)C[C@@H]1O [3'-deoxyribostamycin] | high antibacterial activity against the above-mentioned resistant bacteria
2 | NCCC(O)C(=O)N[C@@H]1C[C@H](N)[C@@H](O[C@H]2O[C@H](CN)[C@@H](O)[C@H](O)[C@H]2O)[C@H](O)[C@H]1O[C@H]1O[C@H](CO)[C@@H](O)[C@H](N)[C@H]1O (some centres unmarked) [1-N-(4-amino-2-hydroxybutyryl)-kanamycin] | active against the kanamycin-resistant bacteria
3 | NCC(O)C(=O)N[C@@H]1C[C@H](N)[C@@H](O[C@H]2O[C@H](CN)CC[C@H]2N)[C@H](O)[C@H]1O[C@H]1O[C@H](CO)[C@@H](O)[C@H](N)[C@H]1O (some centres unmarked) [1-N-isoseryl-DKB] | active against the kanamycin-resistant bacteria
4 | NC[C@H]1O[C@H](O[C@H]2[C@H](O)[C@@H](O[C@H]3O[C@H](CO)[C@@H](O)[C@H](N)[C@H]3O)[C@H](N)C[C@@H]2N)[C@H](N)C[C@@H]1O [3'-deoxykanamycin B] | high antibacterial activity against the above-mentioned resistant bacteria
5 | NC[C@H]1O[C@H](O[C@H]2[C@H](O)[C@@H](O[C@H]3O[C@H](CO)[C@@H](O)[C@H](N)[C@H]3O)[C@H](N)C[C@@H]2N)[C@H](O)C[C@@H]1O [3'-deoxykanamycin A] | high antibacterial activity against the above-mentioned resistant bacteria
6 | NCC(O)C(=O)N[C@@H]1C[C@H](N)[C@@H](O[C@H]2O[C@H](CN)[C@@H](O)[C@H](O)[C@H]2N)[C@H](O)[C@H]1O[C@H]1O[C@H](CO)[C@@H](O)[C@H](N)[C@H]1O (some centres unmarked) [1-N-isoserylkanamycin B] | active against the kanamycin-resistant bacteria
7 | NCCC(O)C(=O)N[C@@H]1C[C@H](N)[C@@H](O[C@H]2O[C@H](CN)CC[C@H]2N)[C@H](O)[C@H]1O[C@H]1O[C@H](CO)[C@@H](O)[C@H](N)[C@H]1O (some centres unmarked) [1-N-(4-amino-2-hydroxybutyryl)-DKB] | active against the kanamycin-resistant bacteria
8 | NCC(O)C(=O)N[C@@H]1C[C@H](N)[C@@H](O[C@H]2O[C@H](CN)[C@@H](O)[C@H](O)[C@H]2O)[C@H](O)[C@H]1O[C@H]1O[C@H](CO)[C@@H](O)[C@H](N)[C@H]1O (some centres unmarked) [1-N-isoserylkanamycin] | active against the kanamycin-resistant bacteria
